Measured values taken from EPA's ToxRefDB 2.

Legend:
[1] = tested on: dog; settings: Subchronic oral toxicity in nonrodent, beagle, Capsule, dose end: 90 day, group: systemic, systemic / in life observation / clinical signs / [other] + systemic / in life observation / clinical signs / feces, discoloration + …
[2] = tested on: mouse; settings: Chronic toxicity; cd1; Oral; Feed; dose end: 1 year; group: systemic; systemic / in life observation / body weight / body weight gain + systemic / in life observation / food consumption / food efficiency
[3] = tested on: dog; settings: Chronic toxicity, beagle, Oral, Capsule, dose end: 53 week, group: systemic
[4] = tested on: mouse; settings: Carcinogenicity; cd1; Oral; Feed; dose end: 18 month; group: systemic; systemic / in life observation / body weight / body weight + systemic / in life observation / body weight / body weight gain + systemic / in…
[5] = tested on: rat; settings: Subchronic oral toxicity in rodents, sprague dawley, Feed, dose end: 90 day, group: systemic
[6] = tested on: rat; settings: Multigenerational reproductive toxicity study, sprague dawley, Oral, Feed, dose end: 3 generation
[7] = tested on: rat; settings: Subchronic oral toxicity in rodents, sprague dawley, Feed, dose end: 90 day, group: systemic, systemic / in life observation / body weight / body weight gain + systemic / pathology gross / eye / opacity + systemic / pathology …
[8] = tested on: rat; settings: Combined chronic toxicity/carcinogenicity, sprague dawley, Oral, Feed, dose end: 2 year, group: systemic
[9] = tested on: rat; settings: Prenatal developmental toxicity study, wistar, Oral, Gavage/Intubation, dose end: 16 GD
[10] = tested on: rat; settings: Subchronic oral toxicity in rodents, fischer, Feed, dose end: 90 day
[11] = tested on: mouse; settings: Subchronic oral toxicity in rodents, b6c3f1, Feed, dose end: 90 day
[12] = tested on: mouse; settings: Multigenerational reproductive toxicity study; cd1; Oral; Feed; dose end: 2 generation; group: offspring; systemic / in life observation / body weight / offspring (pup) weight
[13] = systemic / clinical chemistry / tyrosine / tyrosine + systemic / pathology microscopic / lymph node / erythrophagocytosis
[14] = systemic / clinical chemistry / tyrosine / tyrosine + systemic / pathology microscopic / lymph node / erythrophagocytosis + systemic / in …
[15] = systemic / organ weight / liver / absolute + systemic / organ weight / liver / relative to body weight
[16] = group: offspring, systemic / clinical chemistry / tyrosine / tyrosine
[17] = group: parental, systemic / clinical chemistry / tyrosine / tyrosine
[18] = group: parental, systemic / clinical chemistry / tyrosine / tyrosine + systemic / organ weight / liver / relative to body weight
[19] = group: reproductive, reproductive / offspring survival early / litter size / litter size
[20] = group: reproductive, reproductive / offspring survival early / litter size / litter size + reproductive / offspring survival early / birth index / live birth …
[21] = systemic / in life observation / body weight / body weight + systemic / in life observation / body weight / body weight gain
[22] = group: developmental, developmental / developmental malformation / bone / unossified + developmental / developmental malformation / bone / bipartite ossification…
[23] = group: maternal, systemic / in life observation / body weight / body weight gain + systemic / in life observation / food consumption / food consumption + …
[24] = group: maternal, reproductive / reproductive performance / estrous cycle / length
[25] = group: systemic, systemic / organ weight / liver / relative to body weight
[26] = group: systemic, systemic / organ weight / liver / relative to body weight + systemic / clinical chemistry / bile acids / bile acids + systemic / in life …
[27] = group: systemic, systemic / clinical chemistry / 5' nucleotidase / 5' nucleotidase + systemic / clinical chemistry / alanine aminotransferase (alt/sgpt) / …
[28] = group: systemic, systemic / in life observation / body weight / body weight gain + systemic / organ weight / liver / relative to body weight

CS(=O)(=O)c1ccc(C(=O)C2C(=O)CCCC2=O)c([N+](=O)[O-])c1 [Mesotrione]
LEL [1]: 600 mg/kg/day
LOAEL [1]: > 1000 mg/kg/day
NEL [1]: 100 mg/kg/day
NOAEL [1]: ≥ 1000 mg/kg/day
LEL [2]: 1110 mg/kg/day
LOAEL [2]: 1110 mg/kg/day
NEL [2]: 56.2 mg/kg/day
NOAEL [2]: 56.2 mg/kg/day
LOAEL [3, 13]: 10 mg/kg/day
NOAEL [3, 13]: < 10 mg/kg/day
LEL [3, 14]: 10 mg/kg/day
NEL [3, 14]: < 10 mg/kg/day
LEL [4]: 898 mg/kg/day
LOAEL [4]: 898 mg/kg/day
NEL [4]: 49.7 mg/kg/day
NOAEL [4]: 49.7 mg/kg/day
LEL [5, 15]: 0.21 mg/kg/day
NEL [5, 15]: < 0.21 mg/kg/day
LOAEL ([5]; systemic / pathology microscopic / eye / neovascularization + systemic / pathology microscopic / eye / opacity): 0.63 mg/kg/day
NOAEL ([5]; systemic / pathology microscopic / eye / neovascularization + systemic / pathology microscopic / eye / opacity + systemic / clinical …): 0.41 mg/kg/day
LEL [6, 16]: 0.3 mg/kg/day
LOAEL [6, 16]: 0.3 mg/kg/day
NEL [6, 16]: < 0.3 mg/kg/day
NOAEL [6, 16]: < 0.3 mg/kg/day
LOAEL [6, 17]: 0.3 mg/kg/day
NOAEL [6, 17]: < 0.3 mg/kg/day
LEL [6, 18]: 0.3 mg/kg/day
NEL [6, 18]: < 0.3 mg/kg/day
LEL [6, 19]: 1.1 mg/kg/day
LOAEL [6, 19]: 1.1 mg/kg/day
NEL [6, 20]: 0.3 mg/kg/day
NOAEL [6, 20]: 0.3 mg/kg/day
LEL [7]: 11 mg/kg/day
LOAEL [7]: 11 mg/kg/day
NEL [7]: 0.09 mg/kg/day
NOAEL [7]: 0.09 mg/kg/day
LEL [8, 21]: 0.06 mg/kg/day
NEL [8, 21]: < 0.06 mg/kg/day
LOAEL ([8]; systemic / organ weight / kidney / absolute + systemic / organ weight / kidney / nos + systemic / organ weight / liver / absolute + systemic…): 0.48 mg/kg/day
LEL [9, 22]: 100 mg/kg/day
LOAEL [9, 22]: 100 mg/kg/day
NEL [9, 22]: < 100 mg/kg/day
NOAEL [9, 22]: < 100 mg/kg/day
LOAEL ([9]; group: maternal, systemic / in life observation / body weight / body weight gain + systemic / in life observation / food consumption / food consumption): 300 mg/kg/day
LEL [9, 23]: 300 mg/kg/day
NEL [9, 23]: 100 mg/kg/day
NOAEL [9, 23]: 100 mg/kg/day

Cc1ccccc1O [o-Cresol]
LEL [10, 24]: 129 mg/kg/day
LOAEL [10, 24]: > 2020 mg/kg/day
NEL [10, 24]: < 129 mg/kg/day
NOAEL [10, 24]: ≥ 2020 mg/kg/day
LEL [10, 25]: 510 mg/kg/day
LOAEL [10, 25]: 1020 mg/kg/day
NEL [10, 26]: 247 mg/kg/day
NOAEL [10, 26]: 510 mg/kg/day
LEL [11, 24]: 237 mg/kg/day
LOAEL [11, 24]: > 3200 mg/kg/day
NOAEL [11, 24]: ≥ 3200 mg/kg/day
LOAEL [11, 27]: > 3200 mg/kg/day
NOAEL [11, 27]: ≥ 3200 mg/kg/day
LEL [11, 28]: 199 mg/kg/day
NEL [11, 28]: < 199 mg/kg/day
LEL [12]: 624 mg/kg/day
LOAEL [12]: > 624 mg/kg/day
NOAEL [12]: ≥ 624 mg/kg/day
